According to patent US10428082B2, “Triazole derivatives of melampomagnolide B and methods of use thereof” (BioVentures, LLC, priority 2016, dated 2019):

Key:
Type in all cases: cell-based, human
[1] = tested on: primary AML cell line AML2; test: Anti-leukemic activity, Annexin V/7-AAD flow cytometry; details: Homo sapiens, 24 h, 24 h of drug exposure; read-out: AML#2 (EC50)
Procedure: (§1) The newly synthesized triazole derivatives of melampomagnolide B were screened for anti-leukemic activity against M9 ENL1 and primary AML cell lines; the latter were obtained with informed consent from human patients. Evaluations were performed after 24 h of drug exposure using flow cytometric analysis by labeling with Annexin V and 7-aminoactinomycin D (7-AAD) to delineate apoptotic cell populations. In all experiments PTL was included as a reference control.

[2] = tested on: primary AML cell line AML1; test: as above; details: Homo sapiens, AML1, 24 h, 24 h of drug exposure; read-out: AML#1 (EC50)
Procedure: as §1

HOP-92 = test: NCI 60 growth inhibition; details: HOP-92, Non-Small Cell Lung Cancer
OVCAR-3 = test: NCI 60 growth inhibition; details: OVCAR-3, Ovarian Cancer
A498 = test: NCI 60 growth inhibition; details: A498, Renal Cancer
HS 578T = test: NCI 60 growth inhibition; details: Breast Cancer
DU-145 = test: NCI 60 growth inhibition; details: DU-145, Prostate Cancer
U251 = test: NCI 60 growth inhibition; details: U251, CNS Cancer
786-0 = test: NCI 60 growth inhibition; details: 786-0, Renal Cancer
HOP-62 = test: NCI 60 growth inhibition; details: HOP-62, Non-Small Cell Lung Cancer
NCI-H460 = test: NCI 60 growth inhibition; details: NCI-H460, Non-Small Cell Lung Cancer
KM12 = test: NCI 60 growth inhibition; details: KM12, Colon Cancer
OVCAR-4 = test: NCI 60 growth inhibition; details: OVCAR-4, Ovarian Cancer
UO-31 = test: NCI 60 growth inhibition; details: UO-31, Renal Cancer
EKVX = test: NCI 60 growth inhibition; details: Non-Small Cell Lung Cancer
MDA-MB-231/ATCC = test: NCI 60 growth inhibition; details: Breast Cancer
SF-268 = test: NCI 60 growth inhibition; details: SF-268, CNS Cancer
TK-10 = test: NCI 60 growth inhibition; details: TK-10, Renal Cancer
OVCAR-8 = test: NCI 60 growth inhibition; details: OVCAR-8, Ovarian Cancer
SNB-75 = test: NCI 60 growth inhibition; details: SNB-75, CNS Cancer
NCI/ADR-RES = test: NCI 60 growth inhibition; details: Ovarian Cancer
SR = test: NCI 60 growth inhibition; details: Leukemia
NCI-H226 = test: NCI 60 growth inhibition; details: NCI-H226, Non-Small Cell Lung Cancer
SF-295 = test: NCI 60 growth inhibition; details: SF-295, CNS Cancer
SK-OV-3 = test: NCI 60 growth inhibition; details: SK-OV-3, Ovarian Cancer
RPMI-8226 = test: NCI 60 growth inhibition; details: RPMI-8226, Leukemia
HCT-15 = test: NCI 60 growth inhibition; details: HCT-15, Colon Cancer

## C=C1C(=O)O[C@H]2[C@H]1CC/C(Cn1cc(-c3ccc(F)cc3)nn1)=C\CC[C@@]1(C)O[C@@H]21 [JVM 4-26]
[1]
  EC50: 1900 nM
[2]
  EC50: 1100 nM
HOP-92; Homo sapiens, Table 2
  GI50: 340 nM
OVCAR-3; Homo sapiens, Table 2
  GI50: 490 nM
A498; Homo sapiens, Table 2
  GI50: 1820 nM
HS 578T; Homo sapiens, Table 2
  GI50: 3680 nM
DU-145; Homo sapiens, Table 2
  GI50: 690 nM
U251; Homo sapiens, U-251, Table 2
  GI50: 2020 nM
786-0; Homo sapiens, Table 2
  GI50: 1060 nM
HOP-62; Homo sapiens, Table 2
  GI50: 3040 nM
NCI-H460; Homo sapiens, Table 2
  GI50: 3660 nM
KM12; Homo sapiens, Table 2
  GI50: 1700 nM
OVCAR-4; Homo sapiens, Table 2
  GI50: 1290 nM
UO-31; Homo sapiens, Table 2
  GI50: 1220 nM
EKVX; Homo sapiens, Table 2
  GI50: 1490 nM
MDA-MB-231/ATCC; Homo sapiens, Table 2
  GI50: 1220 nM
SF-268; Homo sapiens, Table 2
  GI50: 1690 nM
TK-10; Homo sapiens, Table 2
  GI50: 1240 nM
OVCAR-8; Homo sapiens, Table 2
  GI50: 1660 nM
SNB-75; Homo sapiens, Table 2
  GI50: 1250 nM
NCI/ADR-RES; Homo sapiens, Table 2
  GI50: 3050 nM
SR; Homo sapiens, Table 2
  GI50: 250 nM
NCI-H226; Homo sapiens, Table 2
  GI50: 2480 nM
SF-295; Homo sapiens, Table 2
  GI50: 5730 nM
SK-OV-3; Homo sapiens, Table 2
  GI50: 9780 nM
RPMI-8226; Homo sapiens, Table 2
  GI50: 1410 nM
HCT-15; Homo sapiens, Table 2
  GI50: 280 nM

## C=C1C(=O)O[C@H]2[C@H]1CC/C(Cn1cc(-c3ccc(N)cc3)nn1)=C\CC[C@@]1(C)O[C@@H]21 [JVM 4-58]
HOP-92; Table 3
  GI50: 2130 nM
OVCAR-3; Table 3
  GI50: 1620 nM
A498; Table 3
  GI50: 10400 nM
HS 578T; Table 3
  GI50: 4460 nM
DU-145; Table 3
  GI50: 3650 nM
U251; Table 3
  GI50: 4160 nM
786-0; Table 3
  GI50: 1980 nM
HOP-62; Table 3
  GI50: 10200 nM
NCI-H460; Table 3
  GI50: 10400 nM
KM12; Table 3
  GI50: 11400 nM
OVCAR-4; Table 3
  GI50: 4900 nM
UO-31; Table 3
  GI50: 1870 nM
EKVX; Table 3
  GI50: 3890 nM
MDA-MB-231/ATCC; Table 3
  GI50: 3450 nM
SF-268; Table 3
  GI50: 3700 nM
TK-10; Table 3
  GI50: 2250 nM
OVCAR-8; Table 3
  GI50: 3040 nM
SNB-75; Table 3
  GI50: 4980 nM
NCI/ADR-RES; Table 3
  GI50: 14500 nM
SR; Table 3
  GI50: 700 nM
NCI-H226; Table 3
  GI50: 3340 nM
SF-295; Table 3
  GI50: 12100 nM
SK-OV-3; Table 3
  GI50: 18300 nM
RPMI-8226; Table 3
  GI50: 2750 nM
HCT-15; Table 3
  GI50: 1420 nM

## C=C1C(=O)O[C@H]2[C@H]1CC/C(Cn1cc(-c3cc(C)c(C)cc3C)nn1)=C\CC[C@@]1(C)O[C@@H]21 [JVM 4-50]
HOP-92; Table 2
  GI50: 430 nM
OVCAR-3; Table 2
  GI50: 1030 nM
A498; Table 2
  GI50: 1040 nM
HS 578T; Table 2
  GI50: 1940 nM
DU-145; Table 2
  GI50: 1350 nM
U251; Table 2
  GI50: 1530 nM
786-0; Table 2
  GI50: 1500 nM
HOP-62; Table 2
  GI50: 1770 nM
NCI-H460; Table 2
  GI50: 3160 nM
KM12; Table 2
  GI50: 2310 nM
OVCAR-4; Table 2
  GI50: 700 nM
UO-31; Table 2
  GI50: 520 nM
EKVX; Table 2
  GI50: 1220 nM
MDA-MB-231/ATCC; Table 2
  GI50: 1110 nM
SF-268; Table 2
  GI50: 1520 nM
TK-10; Table 2
  GI50: 1460 nM
OVCAR-8; Table 2
  GI50: 920 nM
SNB-75; Table 2
  GI50: 520 nM
NCI/ADR-RES; Table 2
  GI50: 2510 nM
SR; Table 2
  GI50: 1260 nM
NCI-H226; Table 2
  GI50: 1460 nM
SF-295; Table 2
  GI50: 6440 nM
SK-OV-3; Table 2
  GI50: 11700 nM
RPMI-8226; Table 2
  GI50: 1180 nM
HCT-15; Table 2
  GI50: 200 nM

## C=C1C(=O)O[C@H]2[C@H]1CC/C(Cn1cc(CCC)nn1)=C\CC[C@@]1(C)O[C@@H]21 [JVM 4-16, (1aR,7aS,10aS,10bS,E)-1a-Methyl-8-methylene-5((4-propyl-1H-1,2,3-triazol-1-yl)methyl)-2,3,6,7,7a,8,10a,10b-octahydrooxireno[2′,3′:9,10]cyclodeca[1,2-b]furan-9(1aH)-one]
HOP-92; Homo sapiens, Table 2
  GI50: 2940 nM
OVCAR-3; Homo sapiens, Table 2
  GI50: 3960 nM
A498; Homo sapiens, Table 2
  GI50: 21500 nM
HS 578T; Homo sapiens, Table 2
  GI50: 23400 nM
DU-145; Homo sapiens, Table 2
  GI50: 4320 nM
U251; Homo sapiens, U-251, Table 2
  GI50: 14100 nM
786-0; Homo sapiens, Table 2
  GI50: 11300 nM
HOP-62; Homo sapiens, Table 2
  GI50: 14100 nM
NCI-H460; Homo sapiens, Table 2
  GI50: 21200 nM
KM12; Homo sapiens, Table 2
  GI50: 17600 nM
OVCAR-4; Homo sapiens, Table 2
  GI50: 9460 nM
UO-31; Homo sapiens, Table 2
  GI50: 11100 nM
EKVX; Homo sapiens, Table 2
  GI50: 11500 nM
MDA-MB-231/ATCC; Homo sapiens, Table 2
  GI50: 4220 nM
SF-268; Homo sapiens, Table 2
  GI50: 13700 nM
TK-10; Homo sapiens, Table 2
  GI50: 3860 nM
OVCAR-8; Homo sapiens, Table 2
  GI50: 13500 nM
SNB-75; Homo sapiens, Table 2
  GI50: 18500 nM
NCI/ADR-RES; Homo sapiens, Table 2
  GI50: 15200 nM
SR; Homo sapiens, Table 2
  GI50: 2880 nM
NCI-H226; Homo sapiens, Table 2
  GI50: 12600 nM
SF-295; Homo sapiens, Table 2
  GI50: 18500 nM
SK-OV-3; Homo sapiens, Table 2
  GI50: 26000 nM
RPMI-8226; Homo sapiens, Table 2
  GI50: 5520 nM
HCT-15; Homo sapiens, Table 2
  GI50: 2900 nM
